Patent US10800791B2, “Triazole ACC inhibitors and uses thereof” (Gilead Apollo, LLC, priority 2015, dated 2020)
In brackets after ≈: the same amount, converted by molar mass. Where two headings read alike, the source gives them in different places.

Legend:
Septoria tritici (St) = assay: Growth inhibition assay of fungal pathogens, St; assay type: cell-based; conditions: Zymoseptoria tritici, 48 h, Septoria tritici, read-out: Concentration at 90% Inhibition St
Method in brief: (§1)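 Inhibition percentages reflect 48 h OD600 and visual scores relative to a 2% DMSO control. Test concentrations were 50, 10, 2 ppm or 2, 0.4, 0.08 ppm final, applied to spores in 17% V8 medium.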

[1] = tested on: Fusarium virguliforme (Fv); assay: Growth inhibition assay of fungal pathogens, Fv; assay type: cell-based; conditions: 48 h, read-out: Concentration at 90% Inhibition Fv
Method in brief: as §1

human (hACC2) = human (hACC2) (Homo sapiens, UniProt O00763); assay: In vitro ACC inhibition assay (ADP-Glo), hACC2; assay type: biochemical; conditions: 5 nM ACC2, 20 μM ATP, 20 μM acetyl-CoA
Sequence of human (hACC2) (O00763 whole entry): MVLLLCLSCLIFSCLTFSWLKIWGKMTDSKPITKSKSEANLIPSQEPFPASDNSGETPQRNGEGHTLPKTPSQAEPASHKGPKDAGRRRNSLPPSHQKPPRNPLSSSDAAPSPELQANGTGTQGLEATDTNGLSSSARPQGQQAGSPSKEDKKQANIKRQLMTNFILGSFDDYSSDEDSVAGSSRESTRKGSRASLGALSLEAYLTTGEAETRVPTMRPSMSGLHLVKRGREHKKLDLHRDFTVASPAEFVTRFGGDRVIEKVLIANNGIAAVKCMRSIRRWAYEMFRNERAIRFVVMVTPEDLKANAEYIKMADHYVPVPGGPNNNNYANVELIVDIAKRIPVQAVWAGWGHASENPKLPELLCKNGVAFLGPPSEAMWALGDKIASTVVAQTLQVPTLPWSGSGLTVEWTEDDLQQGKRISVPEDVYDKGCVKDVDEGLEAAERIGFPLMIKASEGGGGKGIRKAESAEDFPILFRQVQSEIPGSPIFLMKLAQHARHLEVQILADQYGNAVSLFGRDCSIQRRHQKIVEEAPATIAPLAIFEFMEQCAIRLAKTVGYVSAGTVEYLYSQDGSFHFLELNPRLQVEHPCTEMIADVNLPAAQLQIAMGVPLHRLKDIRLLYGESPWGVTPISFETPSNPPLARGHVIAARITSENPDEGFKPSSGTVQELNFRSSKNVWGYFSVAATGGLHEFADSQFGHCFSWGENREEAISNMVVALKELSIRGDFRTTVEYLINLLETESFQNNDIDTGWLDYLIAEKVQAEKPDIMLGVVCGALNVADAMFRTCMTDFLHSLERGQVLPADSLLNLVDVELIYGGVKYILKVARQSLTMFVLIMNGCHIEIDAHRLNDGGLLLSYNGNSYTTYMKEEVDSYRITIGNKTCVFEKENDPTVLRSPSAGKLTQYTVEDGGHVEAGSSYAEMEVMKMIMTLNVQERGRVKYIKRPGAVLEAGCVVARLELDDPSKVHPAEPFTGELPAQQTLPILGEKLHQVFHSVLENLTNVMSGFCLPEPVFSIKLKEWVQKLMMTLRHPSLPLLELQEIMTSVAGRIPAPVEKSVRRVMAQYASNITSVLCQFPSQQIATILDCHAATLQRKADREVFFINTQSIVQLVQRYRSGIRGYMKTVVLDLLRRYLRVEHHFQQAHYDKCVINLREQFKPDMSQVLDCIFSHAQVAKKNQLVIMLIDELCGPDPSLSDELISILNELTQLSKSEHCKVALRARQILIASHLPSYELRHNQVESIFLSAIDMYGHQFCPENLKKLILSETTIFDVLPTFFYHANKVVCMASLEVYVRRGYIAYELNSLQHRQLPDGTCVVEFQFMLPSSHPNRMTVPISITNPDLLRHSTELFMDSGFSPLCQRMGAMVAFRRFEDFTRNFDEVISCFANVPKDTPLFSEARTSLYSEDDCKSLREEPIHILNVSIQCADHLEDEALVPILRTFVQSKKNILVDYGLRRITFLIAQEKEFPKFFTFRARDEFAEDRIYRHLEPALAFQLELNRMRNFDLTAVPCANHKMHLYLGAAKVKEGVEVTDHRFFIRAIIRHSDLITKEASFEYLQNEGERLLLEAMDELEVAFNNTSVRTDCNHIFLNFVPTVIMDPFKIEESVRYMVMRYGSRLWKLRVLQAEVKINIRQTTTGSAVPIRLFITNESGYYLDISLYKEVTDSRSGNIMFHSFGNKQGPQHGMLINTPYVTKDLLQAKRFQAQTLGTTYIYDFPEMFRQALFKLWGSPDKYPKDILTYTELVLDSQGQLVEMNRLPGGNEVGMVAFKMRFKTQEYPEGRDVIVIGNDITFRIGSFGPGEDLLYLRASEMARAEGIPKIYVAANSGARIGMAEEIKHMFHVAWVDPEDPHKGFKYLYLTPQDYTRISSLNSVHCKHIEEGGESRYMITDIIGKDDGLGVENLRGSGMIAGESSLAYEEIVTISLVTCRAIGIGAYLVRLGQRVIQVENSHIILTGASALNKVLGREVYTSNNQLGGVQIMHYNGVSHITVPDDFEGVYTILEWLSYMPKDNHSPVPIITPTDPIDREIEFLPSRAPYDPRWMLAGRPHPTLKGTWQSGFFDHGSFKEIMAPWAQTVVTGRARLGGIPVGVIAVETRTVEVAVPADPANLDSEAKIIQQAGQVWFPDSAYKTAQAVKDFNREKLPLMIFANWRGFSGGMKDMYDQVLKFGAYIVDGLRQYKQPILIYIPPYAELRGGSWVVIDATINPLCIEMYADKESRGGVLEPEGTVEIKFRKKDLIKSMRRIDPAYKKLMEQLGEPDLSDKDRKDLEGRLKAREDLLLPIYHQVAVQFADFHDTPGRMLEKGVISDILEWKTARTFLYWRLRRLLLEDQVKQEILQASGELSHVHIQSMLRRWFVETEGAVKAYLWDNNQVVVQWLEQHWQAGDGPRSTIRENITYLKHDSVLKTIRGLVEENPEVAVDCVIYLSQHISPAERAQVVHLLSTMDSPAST
Description: The detailed procedure is as follows. […] 10 μL ADP glo reagent was added. […] 20 μL kinase detection reagent was added.

Botrtyis cinerea (Bc) = assay: Growth inhibition assay of fungal pathogens, Bc; assay type: cell-based; conditions: 48 h, Botrtyis cinerea, read-out: Concentration at 90% Inhibition Bc
Method in brief: as §1

[2] = tested on: Phytophthora capsici (Pc); assay: Growth inhibition assay of fungal pathogens, Pc; assay type: cell-based; conditions: 48 h, read-out: Concentration at 90% Inhibition Pc
Method in brief: as §1

C. krusei = assay: Antifungal Activity Assay (broth microtiter MIC), C. krusei; assay type: cell-based, Candida krusei; conditions: Pichia kudriavzevii, ATCC6258, 48 h, ATCC 6258, 3 replicates, MIC recorded at 48 h, read-out: MIC, C. krusei ATCC 6258
Method in brief: (§2)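 CLSI M27-A3 microdilution; RPMI 1640+MOPS; 2.5×10^3 CFU/mL final inoculum; cultures from Sabouraud dextrose agar, 35° C overnight; compound working solution 128 μg/mL from 1 mg/mL DMSO stock; visual MIC at 48 h vs growth control.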

C. parapsilosis = assay: Antifungal Activity Assay (broth microtiter MIC), C. parapsilosis; assay type: cell-based, Candida parapsilosis; conditions: Lodderomyces parapsilosis, ATCC22019, 48 h, ATCC 22019, 3 replicates, MIC recorded at 48 h, read-out: MIC, C. parapsilosis ATCC 22019
Method in brief: as §2

[3] = tested on: Fusarium moniliforme (Fm); assay: Growth inhibition assay of fungal pathogens, Fm; assay type: cell-based; conditions: Fusarium verticillioides, 48 h, Fusarium moniliforme, read-out: Concentration at 90% Inhibition Fm
Method in brief: as §1

Rhizoctonia solani (Rs) = assay: Growth inhibition assay of fungal pathogens, Rs; assay type: cell-based; conditions: 48 h, mycelial plugs, read-out: Concentration at 90% Inhibition Rs
fungal (fACC2) = fungal (fACC2) (UniProt Q00955); conditions: read-out: fACC2 (in vitro ACC2 Inhibition Assay, IC50), ADP-Glo, 5 nM ACC2, 20 μM ATP, 20 μM acetyl-CoA
Sequence of fungal (fACC2) (Q00955 whole entry): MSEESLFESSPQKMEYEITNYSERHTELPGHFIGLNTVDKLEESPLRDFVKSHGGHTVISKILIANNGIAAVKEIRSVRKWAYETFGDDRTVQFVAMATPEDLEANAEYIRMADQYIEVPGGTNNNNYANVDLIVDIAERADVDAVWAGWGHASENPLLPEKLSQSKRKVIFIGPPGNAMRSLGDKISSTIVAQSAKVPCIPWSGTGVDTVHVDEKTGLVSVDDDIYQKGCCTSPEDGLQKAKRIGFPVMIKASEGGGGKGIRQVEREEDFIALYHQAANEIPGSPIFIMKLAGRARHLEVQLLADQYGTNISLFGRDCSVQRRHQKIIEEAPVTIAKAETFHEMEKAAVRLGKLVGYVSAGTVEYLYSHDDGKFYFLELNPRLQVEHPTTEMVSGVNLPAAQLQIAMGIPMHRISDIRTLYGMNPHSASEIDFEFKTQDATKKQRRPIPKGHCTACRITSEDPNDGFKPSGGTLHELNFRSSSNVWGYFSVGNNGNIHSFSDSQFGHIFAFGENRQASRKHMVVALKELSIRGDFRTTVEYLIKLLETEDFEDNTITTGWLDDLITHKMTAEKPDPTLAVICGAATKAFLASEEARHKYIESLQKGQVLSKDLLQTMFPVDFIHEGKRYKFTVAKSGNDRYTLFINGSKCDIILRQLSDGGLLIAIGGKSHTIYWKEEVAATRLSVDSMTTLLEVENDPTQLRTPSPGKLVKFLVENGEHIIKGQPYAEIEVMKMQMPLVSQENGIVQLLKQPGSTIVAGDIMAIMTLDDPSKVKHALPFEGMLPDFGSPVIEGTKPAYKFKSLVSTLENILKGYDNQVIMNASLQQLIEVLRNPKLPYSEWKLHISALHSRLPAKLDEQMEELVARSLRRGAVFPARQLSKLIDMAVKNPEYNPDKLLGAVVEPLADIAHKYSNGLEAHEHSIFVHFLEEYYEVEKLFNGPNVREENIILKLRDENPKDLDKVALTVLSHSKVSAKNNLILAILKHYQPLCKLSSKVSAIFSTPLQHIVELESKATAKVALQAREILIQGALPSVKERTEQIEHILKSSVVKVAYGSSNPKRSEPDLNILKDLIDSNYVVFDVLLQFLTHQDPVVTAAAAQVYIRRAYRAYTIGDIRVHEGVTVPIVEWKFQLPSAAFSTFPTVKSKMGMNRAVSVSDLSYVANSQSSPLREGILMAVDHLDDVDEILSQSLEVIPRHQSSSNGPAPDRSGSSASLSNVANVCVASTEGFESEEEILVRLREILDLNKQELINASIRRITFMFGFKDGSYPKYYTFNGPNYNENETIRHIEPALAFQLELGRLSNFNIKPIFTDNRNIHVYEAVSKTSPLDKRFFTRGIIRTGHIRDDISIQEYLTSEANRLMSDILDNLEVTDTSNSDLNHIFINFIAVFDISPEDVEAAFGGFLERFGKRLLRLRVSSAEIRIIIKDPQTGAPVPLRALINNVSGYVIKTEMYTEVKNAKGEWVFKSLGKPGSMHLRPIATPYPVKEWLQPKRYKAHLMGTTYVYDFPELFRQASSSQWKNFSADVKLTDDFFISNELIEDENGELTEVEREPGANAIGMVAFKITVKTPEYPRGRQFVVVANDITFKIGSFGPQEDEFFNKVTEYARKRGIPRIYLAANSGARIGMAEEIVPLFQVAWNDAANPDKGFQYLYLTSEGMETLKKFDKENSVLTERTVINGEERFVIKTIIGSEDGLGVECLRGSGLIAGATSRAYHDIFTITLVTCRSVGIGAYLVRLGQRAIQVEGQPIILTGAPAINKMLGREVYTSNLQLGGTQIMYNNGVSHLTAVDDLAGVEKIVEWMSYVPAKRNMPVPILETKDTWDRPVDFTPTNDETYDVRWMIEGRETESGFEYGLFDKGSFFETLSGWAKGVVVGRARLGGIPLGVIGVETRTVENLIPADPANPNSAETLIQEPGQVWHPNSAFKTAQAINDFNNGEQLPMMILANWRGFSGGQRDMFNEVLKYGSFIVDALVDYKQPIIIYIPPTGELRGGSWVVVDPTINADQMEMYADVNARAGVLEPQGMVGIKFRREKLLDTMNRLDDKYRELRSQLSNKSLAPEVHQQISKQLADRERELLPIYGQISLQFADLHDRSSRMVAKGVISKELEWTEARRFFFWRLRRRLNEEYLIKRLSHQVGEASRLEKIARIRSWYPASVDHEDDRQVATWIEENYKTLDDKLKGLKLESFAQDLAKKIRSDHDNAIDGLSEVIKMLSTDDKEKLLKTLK

[4] = growth inhibition at 48 hours vs 2% DMSO control
[5] = growth inhibition vs 2% DMSO control at 48 hours

Row | Compound | IC90 (Septoria tritici (St); [4]) | IC90 (Septoria tritici (St); [5]) | IC90 [1, 4] | IC90 [1, 5] | IC50 (human (hACC2); Table 2a) | IC50 (human (hACC2); Table 2b, additional results) | IC90 (Botrtyis cinerea (Bc); [4]) | IC90 (Botrtyis cinerea (Bc); [5]) | IC90 [2, 4] | IC90 [2, 5] | MIC (C. krusei; Table 3a) | MIC (C. krusei; Table 3b (additional results)) | MIC (C. parapsilosis; Table 3a) | MIC (C. parapsilosis; Table 3b (additional results)) | IC90 [3, 4] | IC90 [3, 5] | IC90 (Rhizoctonia solani (Rs); [4]) | IC90 (Rhizoctonia solani (Rs); [5]) | IC50 (fungal (fACC2); Table 2a) | IC50 (fungal (fACC2); Table 2b, additional results)
1 | COCCO[C@@H](Cn1c(=O)n(C(C)C(=O)N2CCCC2)c(=O)c2c(C)c(-n3nccn3)sc21)c1cc(F)ccc1OC (stereo partly drawn) [Compound I-64, 1-((R)-2-(5-fluoro-2-methoxyphenyl)-2-(2-methoxy-ethoxy)ethyl)-5-methyl-3-(1-oxo-1-(pyrrolidin-1-yl)propan-2-yl)-6-(2H-1,2,3-triazol-2-yl)thieno[2,3-d]pyrimidine-2,4(1H,3H)-dione] | > 50 µg/mL | > 50 µg/mL | 0.4 µg/mL (≈ 0.666 µM) | 0.4 µg/mL (≈ 0.666 µM) | 10 to 40 nM | 10 to 40 nM | 2 µg/mL (≈ 3.33 µM) | 2 µg/mL (≈ 3.33 µM) | > 50 µg/mL | > 50 µg/mL | 2.1 to 4 µg/mL (≈ 3.5 to 6.66 µM) | 2.01 to 4 µg/mL (≈ 3.35 to 6.66 µM) | 2.1 to 4 µg/mL (≈ 3.5 to 6.66 µM) | 1.01 to 2 µg/mL (≈ 1.68 to 3.33 µM) | 0.4 µg/mL (≈ 0.666 µM) | 0.4 µg/mL (≈ 0.666 µM) | 2 µg/mL (≈ 3.33 µM) | 2 µg/mL (≈ 3.33 µM) | 1 to 5 nM | 1 to 5 nM
2 | COCCO[C@@H](Cn1c(=O)n([C@H](C)C(=O)N2CCCC2)c(=O)c2c(C)c(-n3nccn3)sc21)c1cc(F)ccc1OC [Compound I-65, 1-((R)-2-(5-fluoro-2-methoxyphenyl)-2-(2-methoxy-ethoxy)ethyl)-5-methyl-3-((R)-1-oxo-1-(pyrrolidin-1-yl)propan-2-yl)-6-(2H-1,2,3-triazol-2-yl)thieno[2,3-d]pyrimidine-2,4(1H,3H)-dione] | > 50 µg/mL | > 50 µg/mL | 0.4 µg/mL (≈ 0.666 µM) | 0.4 µg/mL (≈ 0.666 µM) | 10 to 40 nM | 10 to 40 nM | 2 µg/mL (≈ 3.33 µM) | 2 µg/mL (≈ 3.33 µM) | > 50 µg/mL | > 50 µg/mL | 2.1 to 4 µg/mL (≈ 3.5 to 6.66 µM) | 2.01 to 4 µg/mL (≈ 3.35 to 6.66 µM) | 2.1 to 4 µg/mL (≈ 3.5 to 6.66 µM) | 1.01 to 2 µg/mL (≈ 1.68 to 3.33 µM) | 0.4 µg/mL (≈ 0.666 µM) | 0.4 µg/mL (≈ 0.666 µM) | 2 µg/mL (≈ 3.33 µM) | 2 µg/mL (≈ 3.33 µM) | 0.4 to 1 nM | 0.3 to 1 nM
3 | COCCCO[C@@H](Cn1c(=O)n(C(C)(C)C(=O)N2CCCC2)c(=O)c2c(C)c(-n3nccn3)sc21)c1cc(F)ccc1OC [Compound I-68, (R)-1-(2-(5-fluoro-2-methoxyphenyl)-2-(3-methoxy-propoxy)ethyl)-5-methyl-3-(2-methyl-1-oxo-1-(pyrrolidin-1-yl)propan-2-yl)-6-(2H-1,2,3-triazol-2-yl)thieno[2,3-d]pyrimidine-2,4(1H,3H)-dione] | > 50 µg/mL | > 50 µg/mL | 0.4 µg/mL (≈ 0.636 µM) | 0.4 µg/mL (≈ 0.636 µM) | 5 to 10 nM | 5 to 10 nM | 2 µg/mL (≈ 3.18 µM) | 2 µg/mL (≈ 3.18 µM) | > 50 µg/mL | > 50 µg/mL | – | 2.01 to 4 µg/mL (≈ 3.2 to 6.36 µM) | – | 1.01 to 2 µg/mL (≈ 1.61 to 3.18 µM) | 0.08 µg/mL (≈ 0.127 µM) | 0.08 µg/mL (≈ 0.127 µM) | 0.4 µg/mL (≈ 0.636 µM) | 0.4 µg/mL (≈ 0.636 µM) | 1 to 5 nM | 1 to 5 nM
